The conditions of series [1]: oral dose escalation, maximal dose 60 mg/kg, 30 days.
The subject of another series is HMVEC-Cs. The series is described as follows: Vasculogenesis assay. As to conditions: Homo sapiens, 6 h.
The test system of a further series is serum cardiac Troponin-I. Conditions: 30 mg/kg oral daily, end of treatment.
The subject of the next series is hiPSC-CMs. The series can be described thus: hiPSC-CM contractility. It is filed as cell-based. Conditions: Homo sapiens, 96 h, read-out: hiPSC-CM contractility IC50.
A further series in a line: in vivo. Conditions: male, C57Bl/6, mouse, plasma, po, 10 mg/kg.

`Cc1ccc(C(=O)Nc2ccc(CN3CCN(C)CC3)c(C(F)(F)F)c2)cc1C#Cc1cnc2cccnn12` [Ponatinib] came in with a dose causing lethality in series [1] of 50 mg/kg. The IC50 – broadly, the concentration that inhibits the measured activity by half – in the series with HMVEC-Cs (read-out: Vascular profile IC50) was roughly 200 nM. In addition, the EC50 in the series on HMVEC-Cs (read-out: Vasculotoxicity (EC50, μmol/L) mean ± SEM) is 0.2 ± 0.04 µmol/L. Moreover, the “serum cardiac Troponin-I levels compared with vehicle alone” value with serum cardiac Troponin-I is on record as “significantly elevated levels”. In the series on hiPSC-CMs, the IC50 is greater than 1500 nM. For the same compound, in the series “in vivo”, the highest level (Cmax) was 200 ng/mL and the time of peak concentration (Tmax) (as a rule, the time from dosing to the highest level) is 2 h.

Source of the values: article PMC9620869 (Cancer Research, 2022).
